Laboratory results: patent US20070184549A1, “Method of inducing fenestrae” (priority 2004, published 2007)

Key:
[1] = system: actin microfilaments of bEND5 cells; assay: Actin microfilament staining with Alexa546-conjugated phalloidin, time-course in bEND5 cells; format: cell-based, mouse; conditions: for earliest dramatic changes in the organization of actin, time of treatment / time until which cortical actin persisted / was dismantled / time within which stress fibers were reduced: 10 μM Cytochalasin B or 2.5 μM Latrunculin A
Protocol: Stress fibers were reduced within the first 20 minutes, whereas cortical actin persisted until about 60 minutes of treatment. At 120 minutes, individual actin bundles were spread around the cytoplasm. (Bar=8 μm)
FIG. 11 show images of bEND5 cells that were treated with 2.5 μM Latrunculin A for different periods of time, and actin microfilaments were stained with Alexa546-conjugated phalloidin. Stress fibers were reduced within the first 20 minutes, while complete disruption occurs at 60-120 minutes. Individual actin foci, small filaments, and actin-rich filopodia were present after 180 minutes of treatment. (Bar=8 μm)
(§1) Microfilaments were disrupted in all cell types upon treatment. (Bar=8 μm)
In parallel to the SEM analysis, bEND5 cells subjected to cytochalasin B and latrunculin A time-courses were stained for the presence of actin microfilaments using phalloidin (FIGS. 10 and 11). Untreated cells contained an extensive network of stress fibers spanning their cytoplasm. Dramatic changes in the organization of actin were however observed as early as after 10 minutes of treatment with either agent. […] At 120 minutes, the disassembled actin was concentrated in aggregates throughout the cytoplasm, while large areas remained actin-deficient. In cells treated with latrunculin A (FIG. 11) the disruption of stress fibers was faster, and the cortical cytoskeleton was dismantled within the first 20 minutes. Overall cells had more and larger actin-depleted areas, and the remainder of actin appeared irregularly arranged in short filaments around the cytoplasm or in structures resembling filopodia.

bEND5 cells = assay: Fenestrae induction in bEND5 cells, quantified by stereology on SEM or wholemount TEM images; conditions: for induction of fenestrae compared to the untreated control: cytochalasin B (10 nM) or Latrunculin A (2.5 nM) alone; for induction of fenestrae compared to the untreated control / maximum number of fenestrae: SEM; for maximum number of fenestrae: cytochalasin B at 2 hours, latrunculin A after 3 hours; for time of treatment at maximum number of fenestrae: single agent, SEM time-course; for fenestrae formation: 2.5 μM Latrunculin A, 3 hours, wholemount TEM
Source text: Images were printed, and sieve plates were marked (solid line). A grid (20 mm×20 mm) was overlaid over each image and the number of grid points falling within the areas delineated or on any cellular structure were counted. Fenestrae abundance was estimated based on the following calculation: Plasma membrane coverage (or fraction of the plasma membrane occupied by sieve plates)=grid points falling on sieve plates/grid points falling on any cell area. To express abundance in terms of the number of fenestrae per area of plasma membrane, the density of fenestrae within sieve plates was calculated and multiplied by the frequency of sieve plates as follows: number of fenestrae per square μm=density of fenestrae×plasma membrane coverage.
A quantitative assessment of fenestrae numbers was achieved by applying Stereology to SEM or wholemount TEM images (FIG. 3). Quantitative assessment comprised overlaying a lattice on top of an image and counting points falling on fenestrated and on non-fenestrated areas of the plasma membrane. Amounts of fenestrae were routinely expressed as fractions of plasma membrane area that was fenestrated (point counts falling on fenestrae divided by point counts falling on any plasma membrane area). To compare these numbers with measurements in previous in vivo or in vitro studies, the density of individual fenestrae within sieve plates was estimated, which when multiplied by the fraction of plasma membrane coverage equaled the number of fenestrae per μm^2 of plasma membrane.
Coverslips and dishes were coated with 1% gelatin (Sigma) solution in PBS for 30 minutes at room temperature. Endothelial cells were seeded overnight at a density equivalent to 1.5×10^6 cells per 100 mm dish. Cultures were induced with Cytochalasin B (Sigma) at 10 μM for 2 hours, with Latrunculin A (Molecular Probes) at 2.5 μM for 3 hours, or with a combination of recombinant mouse 75 ng/ml VEGF (R&D systems) for 6-72 hours and 10 μM Cytochalasin B for 2 hours. Cells were processed for biochemistry or morphology immediately after the end of the induction.

actin filaments = conditions: barbed, fast growing end of actin filaments; cited from earlier work
Py4.1 cells = assay: Fenestrae induction in Py4.1 cells, wholemount TEM; format: cell-based, mouse; conditions: for fenestrae formation: 2.5 μM Latrunculin A, 3 hours, wholemount TEM
Protocol: (§2) FIG. 9 is a graph regarding fenestrae induction in different endothelial cell types. The potential of different endothelial cell lines to form fenestrae under the optimal parameters of induction was assessed using wholemount TEM. bEND5, Py4.1, SVEC, and HUVEC cells were treated for 3 hours with vehicle (V) or 2.5 μM Latrunculin A (Lat), and the number of fenestrae was estimated as a fraction of the plasma membrane area occupied by sieve plates. Data points represent the average of two experiments, with 36 images captured per sample in each experiment. Error bars represent standard deviation between the two experiments.
A panel of endothelial cell subtypes was assessed for their fenestrae-forming potentials. Three mouse endothelial lines (bEND5, Py4.1, SVEC) and one human primary endothelial line (HUVEC) were cultured on gelatin-coated grids, treated with latrunculin A for 3 hours, and examined by wholemount TEM (FIG. 8). bEND5 and Py4.1 cells are brain endothelomas and ear/tail endotheliomas respectively, both originating from hemangiomas of Polyoma virus—infected mice. SVECs are lymph node endothelial cells infected with SV40 virus. HUVECs were chosen because of their widespread use and primary cell nature. […] The response of bEND5 and Py4.1 cells differed both in magnitude and in relation to the respective untreated controls. bEND5 cells harbored greater numbers of fenestrae overall, but contained some background fenestrae in the un-induced state.

[2] = system: actin cytoskeleton of HUVEC cells; assay: Actin cytoskeleton staining with phalloidin in HUVEC cells; format: cell-based, human; conditions: 2.5 μM Latrunculin A, 3 hours
Source text: as §1
(§3) The actin cytoskeleton of all four cell types was stained with phalloidin to study the differential induction of endothelial cell subtypes by latrunculin A (FIG. 12). […] Observation of bEND5 and Py4.1 cells highlighted a difference in their actin cytoskeleton in the steady state (FIGS. 12A and 12C). Py4.1 cells had greater amounts of cortical actin. This could account for their decreased susceptibility to fenestrae formation compared to bEND5 cells, a discrepancy particularly apparent during induction with cytochalasin B.

actin monomers = conditions: 1:1 complexes with actin monomers; cited from earlier work
HUVEC cells = assay: Fenestrae induction in HUVEC cells, wholemount TEM; format: cell-based, human; conditions: 2.5 μM Latrunculin A, 3 hours
Protocol: as §2
(§4) A panel of endothelial cell subtypes was assessed for their fenestrae-forming potentials. Three mouse endothelial lines (bEND5, Py4.1, SVEC) and one human primary endothelial line (HUVEC) were cultured on gelatin-coated grids, treated with latrunculin A for 3 hours, and examined by wholemount TEM (FIG. 8). bEND5 and Py4.1 cells are brain endothelomas and ear/tail endotheliomas respectively, both originating from hemangiomas of Polyoma virus—infected mice. SVECs are lymph node endothelial cells infected with SV40 virus. HUVECs were chosen because of their widespread use and primary cell nature. […]

[3] = system: actin cytoskeleton of Py4.1 cells; assay: Actin cytoskeleton staining with phalloidin in Py4.1 cells; format: cell-based, mouse; conditions: 2.5 μM Latrunculin A, 3 hours
Source text: as §1, §3

[4] = system: actin cytoskeleton of SVEC cells; assay: Actin cytoskeleton staining with phalloidin in SVEC cells; format: cell-based, mouse; conditions: 2.5 μM Latrunculin A, 3 hours
Source text: as §1, §3

SVEC cells = assay: Fenestrae induction in SVEC cells, wholemount TEM; format: cell-based, mouse; conditions: 2.5 μM Latrunculin A, 3 hours
Protocol: as §2, §4

[5] = system: primary liver endothelial cells; conditions: cited from earlier work
[6] = system: normally non-fenestrated anatomical sites; conditions: topical application or intradermal injection; cited from earlier work

With `C=C1[C@@H](C)[C@H]2[C@H](Cc3ccccc3)NC(=O)[C@]23OC(=O)/C=C/[C@H](O)CCC[C@@H](C)C/C=C/[C@H]3[C@@H]1O` [cytochalasin B] the “earliest dramatic changes in the organization of actin, time of treatment” value [1] was 10 min, the “time until which cortical actin persisted / was dismantled” value [1] was “about 60 minutes” and the “time within which stress fibers were reduced” value [1] was no more than 20 min. The “induction of fenestrae compared to the untreated control” value (bEND5 cells) was roughly 100 fold, the “maximum number of fenestrae” value (bEND5 cells) was 3.5 fenestrae per μm^2 and the “time of treatment at maximum number of fenestrae” value (bEND5 cells) was 2 h. For the same compound, the “change in the number of fenestrae at 3 hours of treatment” value (bEND5 cells; versus the maximum at 2 hours) was “slight decrease”, the Kd (actin filaments) was 10 to 100 nM and the “response of Py4.1 cells to cytochalasin B (fenestrae formation)” value (Py4.1 cells) was “responsive”.
With `C/C1=C/C(=O)O[C@@H]2C[C@@H](CC[C@H](C)/C=C\C=C\CC1)O[C@@](O)([C@@H]1CSC(=O)N1)C2` [latrunculin A] the “time of complete disruption of actin microfilaments” value ([1]; 2.5 μM Latrunculin A) was 60 to 120 min, the “state of the actin cytoskeleton after treatment” value (from here on “state of the actin cytoskeleton”) ([1]; 2.5 μM Latrunculin A, 3 hours) was “completely disrupted” and the “earliest dramatic changes in the organization of actin, time of treatment” value [1] was 10 min. The “time until which cortical actin persisted / was dismantled” value [1] was no more than 20 min, the “time within which stress fibers were reduced” value [1] was no more than 20 min and the “state of the actin cytoskeleton” value [2] was “completely disrupted”. The Kd (actin monomers) was roughly 100 nM, the fenestrae formation (HUVEC cells) was “only very few” and the fenestrae formation (HUVEC cells; listed as Latrunculin A) was “rare fenestrae”. For the same compound, the “state of the actin cytoskeleton” value [3] was “completely disrupted”, the “state of the actin cytoskeleton” value [4] was “completely disrupted” and the fenestrae formation (SVEC cells) was “no indication of fenestrae”. For the same compound, the fenestrae formation (SVEC cells; listed as Latrunculin A) was “No fenestrae”, the fenestrae formation (bEND5 cells) was “susceptible to fenestrae formation” and the fenestrae formation (bEND5 cells; listed as Latrunculin A) was “Abundant fenestrae”. The “induction of fenestrae compared to the untreated control” value (bEND5 cells) was roughly 100 fold, the “maximum number of fenestrae” value (bEND5 cells) was “up to 5.3 fenestrae per μm^2” and the “maximum number of fenestrae” value (bEND5 cells; listed as Latrunculin A) was 5.3 fenestrae per μm^2. For the same compound, the “potency in inducing fenestrae, comparison of the two agents” value (bEND5 cells; even when used at lower concentrations) was “more potent in inducing fenestrae than cytochalasin B”, the “time of treatment at maximum number of fenestrae” value (bEND5 cells) was 3 h and the “viability of the cells” value (bEND5 cells; treatments extended over 3 hours) was “reduced considerably”. For the same compound, the fenestrae formation (Py4.1 cells) was “susceptible to fenestrae formation” and the fenestrae formation (Py4.1 cells; listed as Latrunculin A) was “Abundant fenestrae”.
In the case of `CO[C@H]1C[C@H](CC[C@H](C)[C@H](O)[C@H](C)[C@H]2OC(=O)/C=C/C(C)=C/C[C@H](O)C[C@@H]3C=CC[C@@H](C[C@H](OC)[C@@H](C)[C@@H](O)C[C@@H](O)[C@H](C)[C@@H]([C@@H](C)[C@@H](O)[C@@H](C)CC[C@H]4C[C@H](OC)C[C@H](C)O4)OC(=O)/C=C/C(C)=C/C[C@H](O)C[C@@H]4C=CC[C@@H](C[C@H](OC)[C@@H](C)[C@@H](O)C[C@@H](O)[C@@H]2C)O4)O3)O[C@@H](C)C1` [swinholide A], the “induction of fenestrae over untreated control” value [5] is listed as “less than 3 fold” and the fenestrae levels ([5]; untreated control contained over 3 fenestrae per μm^2) is listed as “up to 9.1 per μm^2”.
For VEGF, the “time within which fenestrations are induced” value [6] is given as no more than 10 min and the “fenestrae induction, cells treated only with VEGF” value (bEND5 cells; Cytochalasin B omitted from the induction cocktail) is given as “minimal induction over background”.
